What was measured:
GPR40 [1] = target: T1, GPR40 (Homo sapiens, UniProt O14842); experiment: Cell-based aequorin assay (CHO cells stably expressing GPR40 and aequorin); set-up: expressed in transfected cells; host or cells: CHO cells stably transfected with GPR40 and aequorin; conditions: activation of human GPR40, CHO cells, 0.01% HSA
Procedure, shortened: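 CHO cells stably co-expressing GPR40 and aequorin, loaded with coelenterazine (1 ug/mL, 2 h, room temperature) in H/HBSS with 20 mM Hepes and 0.01% fatty acid-free HSA. Serially diluted compounds added; luminescence recorded over 20 s. EC50 from dose-response of maximum relative light units.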

GPR40 [2] = target: T1, GPR40; experiment: Inositol phosphate accumulation assay (A9_GPR40 cells); format: cell-based; set-up: expressed in transfected cells; host or cells: CHO cells stably transfected with GPR40 and aequorin; conditions: inositol phosphate assay, A9_GPR40 cells, 1 hour; read-out: IP3 EC50
Protocol: Briefly, the Aequorin assays were performed on doubly stable CHO cells expressing GPR40 and Aequorin DNA. […] The luminescence was recorded over a period of 20 seconds with a Microlumat luminometer (Berthold). […] The inositol phosphate assay was performed on an A9 cell line stably transfected with GPR40 (A9_GPR40). The cells were incubated with different concentrations of compounds and [^3H] inositol accumulation was measured after 1 hour.
An A9 cell line stably transfected with GPR40 (A9_GPR40) was used in IP accumulation assays. A9_GPR40 cells were plated in 96-well plates containing 20,000 cells/well in DMEM containing 10% FBS. After the cells attached to the well surface, the media was replaced with inositol free DMEM containing 10% dialyzed FBS and 1 μCi, mL ^3H-inositol and incubated for 16 hours. Compounds were diluted in HBSS/10 mM LiCl containing a desired amount of HSA and added directly to cells. Following 1 hour incubation at 37° C., the media was replaced with 100 μL of 20 mM formic acid to quench the reaction. 50 μL of the extract was then added to 100 μL of SPA beads, incubated overnight, and measured on a TopCount the following day.

T1 sequence (O14842 whole entry): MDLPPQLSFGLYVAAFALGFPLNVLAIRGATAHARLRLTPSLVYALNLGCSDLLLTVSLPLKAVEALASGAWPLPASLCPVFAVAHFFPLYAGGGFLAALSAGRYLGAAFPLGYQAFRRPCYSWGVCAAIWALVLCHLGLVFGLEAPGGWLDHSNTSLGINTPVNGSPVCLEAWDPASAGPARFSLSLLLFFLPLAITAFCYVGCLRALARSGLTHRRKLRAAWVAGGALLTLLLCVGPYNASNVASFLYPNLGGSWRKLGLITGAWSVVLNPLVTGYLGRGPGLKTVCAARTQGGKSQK

Row | Structure (SMILES) | EC50 (GPR40 [1]) [µM] | EC50 (GPR40 [2]) [µM]
1 | CCC(C)(C)[C@H](OC)c1cc(COc2cccc([C@@H](CC(=O)O)C3CC3)c2)ccc1-c1cc(OC)ccc1F (single isomer, unassigned) [Example 66.62] | 0.01 to 0.1 | < 0.01
2 | COc1ccc(F)c(-c2ccc(COc3cccc(C(CC(=O)O)CC4CC4)c3)cc2CC(C)C)c1 (single isomer, unassigned) [Example 69.21, (3R)-4-Cyclopropyl-3-(3-(((2′-fluoro-5′-(methyloxy)-2-(2-methylpropyl)-1,1′-biphenyl-4-yl)methyl)oxy)phenyl)butanoic acid or (3S)-4-cyclopropyl-3-(3-(((2′-fluoro-5′-(methyloxy)-2-(2-methylpropyl)-1,1′-biphenyl-4-yl)methyl)oxy)phenyl)butanoic acid] | 0.1 to 1 | 0.01 to 0.1
3 | CCC(CC(=O)O)c1cc(F)cc(OCc2cc(C3CCCC3(C)C)c(-c3cc(OC)ccc3F)cc2F)c1 (single isomer, unassigned) [Example 88.3] | 0.1 to 1 | < 0.01
4 | COc1ccc(F)c(-c2ccc(COc3cccc(C(C)CC(=O)O)c3)cc2C2=CCCC2)c1 (single isomer, unassigned) [Example 64.19, (3R)-3-(3-(((2-(1-Cyclopenten-1-yl)-2′-fluoro-5′-(methyloxy)-1,1′-biphenyl-4-yl)methyl)oxy)phenyl)butanoic acid or (3S)-3-(3-(((2-(1-cyclopenten-1-yl)-2′-fluoro-5′-(methyloxy)-1,1′-biphenyl-4-yl)methyl)oxy)phenyl)butanoic acid] | 0.1 to 1 | 0.1 to 1
5 | CCC(CC(=O)O)c1cc(F)cc(OCc2ccc(-c3cc(OC)ncc3F)c(C3CCCC3(C)C)c2)c1F (single isomer, unassigned) [Example 90.3] | 0.1 to 1 | < 0.01
6 | CC1(C)CCC[C@@H]1c1cc(COc2cccc([C@@H](CC(=O)O)C3CC3)c2)ccc1-c1cc(C(F)F)ccc1F (single isomer, unassigned) [Example 66.51] | 0.1 to 1 | 0.01 to 0.1
7 | COc1ccc(F)c(-c2ccc(COc3cccc([C@@H](CC(=O)O)C4CC4)c3)cc2CN2[C@H](C)CCC[C@H]2C)c1 (single isomer, unassigned) [Example 66.69] | 0.1 to 1 | 0.01 to 0.1
8 | CC[C@H](CC(=O)O)c1cccc(OCc2ccc(-c3cc(OC)ncc3F)c(C3(COC)CCCC3)c2)c1F (single isomer, unassigned) [Example 77.12, (3R)-3-(3-(4-(5-Fluoro-2-methoxypyridin-4-yl)-3-(1-(methoxymethyl)cyclopentyl)benzyloxy)-2-fluorophenyl)pentanoic acid or (3S)-3-(3-(4-(5-fluoro-2-methoxypyridin-4-yl)-3-(1-(methoxymethyl)cyclopentyl)benzyloxy)-2-fluorophenyl)pentanoic acid] | 1 to 10 | 
9 | COc1ccc(F)c(-c2ccc(COc3cccc([C@@H](CC(=O)O)c4ccon4)c3)cc2C2=CCCC2(C)C)c1 [Example 94.1, (3R)-3-(3-(((2-(5,5-Dimethyl-1-cyclopenten-1-yl)-2′-fluoro-5′-(methyloxy)-1,1′-biphenyl-4-yl)methyl)oxy)phenyl)-3-(3-isoxazolyl)propanoic acid] | 1 to 10 | 
10 | CC1(C)CCC[C@H]1c1cc(COc2cccc([C@@H](CC(=O)O)C3CC3)c2)ccc1-c1cc(C(F)F)ccc1F (single isomer, unassigned) [Example 66.52] | 1 to 10 | 
11 | CCCC(CC(=O)O)c1cccc(OCc2ccc(-c3cc(OC)ccc3F)c(OCCCC(C)C)c2)c1 (single isomer, unassigned) [Example 67.16, (3R)-3-(3-(((2′-Fluoro-5′-(methyloxy)-2-((4-methylpentyl)oxy)-1,1′-biphenyl-4-yl)methyl)oxy)phenyl)hexanoic acid or (3S)-3-(3-(((2′-fluoro-5′-(methyloxy)-2-((4-methylpentyl)oxy)-1,1′-biphenyl-4-yl)methyl)oxy)phenyl)hexanoic acid] | 0.1 to 1 | 

— patent publication US8030354B2, “Substituted biphenyl GPR40 modulators” (Amgen Inc., priority 2007, dated 2011)
